Measurements published in US20250281629A1, “COMPOSITIONS AND METHODS FOR ANTI-PHOSPHOCHOLINE ACTIVE IMMUNOTHERAPY” (Duke University, priority 2022, published 2025).
Where no end group is shown, it is not given here. C11H22NO6P = phosphorylcholine group attached via 2-methacryloyloxyethyl phosphorylcholine

Experiments:
[1] = Thioflavin T (ThT) assay for β-sheets; type: physicochemical; settings: peak fluorescence intensity around 488 nm
Description: Thioflavin T (ThT) Assay. β-sheets were detected by Thioflavin T (ThT) (Alfa Aesar, J61043) binding and resulting fluorescence. 180 μL of 0.05 mM ThT was added to 20 μL of 2 mM nanofibers in a 96-well black plate and allowed to incubate for 1 min. Fluorescence intensity was then determined using an excitation wavelength of 440 nm and emission wavelengths from 460-600 nm at 5 nm intervals. A peak fluorescence intensity at an emission wavelength around 488 nm is indicative of β-sheets.

[2] = system: mouse anti-PC IgM monoclonal antibody (Clone: BH8); test: ELISA for measuring nanofiber epitope reactivity; type: binding; settings: nanofibers coated at 0.2 mM; PC-BSA positive control
Description: ELISA for Measuring Nanofiber Epitope Reactivity. The reactivity of PC conjugation methods was determined via binding of a mouse anti-PC IgM monoclonal antibody (Clone: BH8) (Sigma, MABF2084) to nanofibers. Nanofibers were diluted to 0.2 mM and coated onto 96-well plates at 4° C. overnight. PC-BSA (Biosearch Technologies, PC-1011-10) was coated at 20 μg/mL in 1×PBS overnight as a positive control, and PBS was used as a negative control. The next day, the plates were washed using 1×PBS with 0.05% Tween 20 (1×PBST) and then blocked with Superblock blocking buffer solution (Thermo Fisher, 37515) three times. This was followed by the addition anti-PC IgM which was serially diluted in 1% BSA in 1×PBST by 5-fold steps beginning from 1:100 (5 μg/mL) and allowed to incubate for 2 h at room temperature. Anti-PC IgM bound to nanofibers was then detected with HRP-conjugated goat anti-mouse IgM (Southern Biotech, 1021-05) and the absorbance values at 450 nm were measured.

C57BL/6 mice = test: Serum anti-PC antibody responses of immunized mice via ELISA (PC-BSA coated); type: in vivo, mouse
Description: Mice and Immunizations. Female C57BL/6 mice (Envigo) age 6-10 weeks were used to initiate experiments except for the Il10^−/− colitis study where female B6.129P2-Il10^tm1Cgn/J (The Jackson Laboratory) mice age 5-7 weeks were used. While female mice were used for most experiments, age-matched male C57BL/6 mice (Envigo) were used in a one cycle acute DSS colitis model to confirm efficacy across sexes. Mice were housed at Duke University. All experimental procedures were performed on protocols (A264-18-11 and A199-21-09) approved by the Duke University Institutional Animal Care and Use Committee (IACUC). For subcutaneous immunizations, anesthetized mice were injected once behind each shoulder with 50 μL of 2 mM peptide nanofiber solution or 1×PBS. For intraperitoneal immunizations, mice were injected with 100 μL of 2 mM peptide nanofiber solution or 1×PBS. Nanofiber immunizations with adjuvant contained 10 μg CpG (ODN 1826, IAX-200-002-3001, Innaxon). For injections of only CpG, 10 μg of CpG in 100 μL 1×PBS was used. Mice were typically given three immunizations, with the specific boosting schedules stated in each figure caption, usually at weeks 0, 2, and 4, as this was determined to produce robust antibody responses in a short time frame.
Detection of Anti-PC Antibody Responses via ELISA. Anti-PC antibody responses in serum collected from the submandibular vein in mice were measured using ELISA. Briefly, plates were coated with 20 μg/mL PC-BSA (Biosearch Technologies, PC-1011-10) in 1×PBS or just 1×PBS at 4° C. overnight. The next day, the plates were washed using 1×PBST (1×PBS with 0.05% Tween 20) and then blocked three times with Superblock blocking buffer solution (Thermo Fisher, 37515). Serum diluted from 1:10^2 to 1:10^5 in 1% BSA in 1×PBST was the added to the plate and allowed to incubate for 2 h at room temperature. Anti-PC IgG was detected using HRP-conjugated Fcγ fragment-specific goat anti-mouse IgG (Jackson Immuno Research, 15-035-071). IgG subclasses and IgM anti-PC antibodies were detected using Southern Biotech HRP-conjugated goat anti-mouse antibodies (IgG1, IgG2b, IgG2c, IgG3, & IgM: 5300-05B). Area under the curve (AUC) measurements were calculated using background-subtracted absorbance values at dilutions from 1:10^2 to 1:10^5. Antibody titers were defined using an absorbance cutoff above background of 0.2 OD, where titer 2 represents an OD value greater than 0.2 at 1:10^2 dilution and so on up to titer 5 at 1:10^5 dilution.

B1a cells (CD19+CD5+) = test: Nanofiber uptake in i.p. lavage cells, flow cytometry: B1a cells; type: in vivo, mouse
Description: Nanofiber Uptake and Evaluation. The cell types present and their propensity to uptake nanofibers in the i.p. space was tested by injecting mice i.p. with 100 μL of 2 mM TAMRA-labeled fluorescent nanofibers. 4 hours later, mice were euthanized and i.p. lavage was conducted via the injection of 2 mL of cold 1×PBS into the peritoneal cavity and massaging the abdomen for 30 seconds. The solution was then carefully extracted from the i.p. space and the cells were isolated followed by rinsing with ice cold flow buffer (2% heat-inactivated FBS in 1×PBS). The cells present were treated with mouse BD Fc Block (Clone: 2.4G2) (BD Biosciences, 553142) in flow buffer on ice for 30 min and then washed and stained with antibodies against the following markers: CD5-APC (Clone: 53-7.3) (BioLegend, 100626), F4/80-PerCP/Cy5.5 (Clone: BM8) (BioLegend, 123128), CD19-APC/Cy7 (Clone: 6D5) (BioLegend, 115530), CD11c-PE/Cy7 (Clone: N418) (BioLegend, 117318), and CD86-BV605 (Clone: GL1) (BD Biosciences, 2272591) in flow buffer for 30 min on ice. TAMRA-fluorescence as an indication of nanofiber uptake was measured on the PE channel. Cells were then washed in flow buffer and stained with DAPI. Flow cytometry was conducted on a BD FACSCanto II cytometer and the results were analyzed using FlowJo software.

(C11H22NO6P)n-CCCCSGSG-QQKFQFQFEQQ-NH2 (CCCCSGSGQQKFQFQFEQQ-NH2; not fully specified; cysteine pairing not given here; also: phosphorylcholine groups (C11H22NO6P) n=1-4, attachment not placed) [PCM-Q11, linear multi-PC conjugate]
thioflavin-T binding (β-sheet fibrillar structure) [1]: bound thioflavin-T (ThT) | binding of anti-PC mAb to nanofibers [2]: increased binding of an anti-PC mAb compared to PC-Q11 nanofibers and PC-BSA | anti-PC antibody levels on increasing epitope content 2.5 times (C57BL/6 mice; 0.5 mM (25%) vs 0.2 mM (10%) PCM-Q11, i.p. with CpG): no significant change in the response elicited | anti-PC IgG responses, PCM-Q11 vs PC-Q11 (C57BL/6 mice; i.p., weeks 0, 2, 4, both coassembled with PADRE-Q11): significantly greater than i.p. immunization with PC-Q11 | CD86 activation marker on TAMRA+ B1a cells vs non-B1a cells (B1a cells (CD19+CD5+); 4 hours after i.p. injection): selective elevation on B1a cells | TAMRA MFI of B1a cells (B1a cells (CD19+CD5+); 4 hours after i.p. injection): selective uptake | B1a cells stained positively for nanofibers (B1a cells (CD19+CD5+); 4 hours after i.p. injection of TAMRA-labeled nanofibers): about 75% | B1a cells among total TAMRA+ cells (B1a cells (CD19+CD5+); total TAMRA+ cells categorized by cell type): acquired by a substantial B1a cell population

C11H22NO6P-CSGSG-QQKFQFQFEQQ-NH2 (C(C11H22NO6P)SGSGQQKFQFQFEQQ-NH2) [PC-Q11, phosphodiester PC-Q11]
thioflavin-T binding (β-sheet fibrillar structure) [1]: bound thioflavin-T (ThT) | binding of anti-PC mAb to nanofibers [2]: bound | antibody response against PC-BSA (serum total anti-PC IgG) (C57BL/6 mice; s.c. or i.p., weeks 0, 3, 11, with PADRE-Q11, PC-Q11 vs pa-PC-Q11): significantly greater antibody response | CD86 activation marker on TAMRA+ B1a cells vs non-B1a cells (B1a cells (CD19+CD5+); 4 hours after i.p. injection): not seen
